Patent US20230289968A1, “AUTOMATED ANALYSIS OF CELL CULTURES” (Hoffmann-La Roche Inc., priority 2020, published 2023)

Legend:
[1] = system: MDA-MB-231 cells co-cultured with CAFs; experiment: Breast-cancer-on-chip co-culture with cancer-associated fibroblasts, STAMP apoptosis rate; type: cell-based; conditions: 1 µM doxorubicin, 6:1 cancer:CAF ratio, TLAG = 4 h, 68 hrs
Protocol: MDA-MB-231 cancer cells were co-cultured on-chip +/- cancer-associated fibroblasts (CAFs) and +/- doxorubicin (1 µM) treatment. Final CAF:cancer ratio was 1:6. […] The data are the means of 3 measurements coming from 3 videos of the same experiment (+/- SEM). The data illustrating the MDA-MB-231 without CAFs conditions come from the same videos analyzed for FIG. 4 but with different time-interval resolution.
Cell cultures The MDA-MB-231 cell line, from triple negative breast cancer, was cultured in high-glucose DMEM (GE Healthcare, #SH30081.01) supplemented with 10% fetal bovine serum (Biosera), 1% Penicillin/Streptomycin (Gibco), 1% glutamine (Gibco). The IGR-Pub lung adenocarcinoma cells and the autologous T cells P62 were harvested from the same patient in Institut Gustave Roussy. […]
Having established that the STAMP method accurately monitors cancer death within co-cultures of cancer and T cells, we moved to bi-cultures of cancer cells and cancer-associated fibroblasts (CAFs). […] Since it is well established that CAFs contribute to chemoresistance in various cancer types, by co-culturing primary breast CAFs with the breast cancer MDA-MB-231 cells, we assessed the capacity of ToC to recapitulate the CAF impact on doxorubicin resistance ex vivo.

[2] = system: MDA-MB-231 cells; experiment: Breast-cancer-on-chip culture, time-lapse imaging analysed with STAMP (apoptosis rate, Pdeath); type: cell-based; conditions: 1 µM doxorubicin
Protocol: Cell cultures The MDA-MB-231 cell line, from triple negative breast cancer, was cultured in high-glucose DMEM (GE Healthcare, #SH30081.01) supplemented with 10% fetal bovine serum (Biosera), 1% Penicillin/Streptomycin (Gibco), 1% glutamine (Gibco). The IGR-Pub lung adenocarcinoma cells and the autologous T cells P62 were harvested from the same patient in Institut Gustave Roussy. The IGR-Pub cells were cultured in DMEM F12 (GIBCO) supplemented with 10% fetal bovine serum (Biosera), 1% of Ultroser G (Pall), 1% of Sodium Pyruvate (Gibco) and 1% Penicillin/Streptomycin (GIBCO). P62 T cells were cultured in RPMI-1640 (GE Healthcare) supplemented with 10% human AB serum (Institut Jacques Boy, Reims, France), rIL-2 (20 U/ml, Gibco), 1% of Sodium Pyruvate (Gibco) and 0.1% Penicillin/Streptomycin (Gibco). Primary cancer-associated fibroblasts (CAFs) were isolated and cultured as previously reported. All cell lines were periodically tested to exclude mycoplasma contamination using a qPCR-based method (VenorGem Classic, BioValley, #11-1250). The MDA-MB-231 cell line was authenticated by SRT profiling (GenePrint 10 system, Promega, #B9510). Doxorubicin was purchased from Teva pharmaceuticals (200 mg/ml).
Tumor-on-chip preparation The microfluidic devices were purchased from AIM-Biotech (#DAX-1). Cells were seeded in the central chamber of the DAX-1 chips embedded in a matrix composed of type I rat tail collagen (Thermofisher, #A1048301) at the final concentration of 2.3 mg/ml. Cancer cells were seeded in the gel at a final density of 2×10^6 cells/ml. Autologous T cells were added at final densities of 0.2×10^6 to 2×10^6 cells/ml in order to obtain different ratios (from 10:1 to 1:1) between cancer and T cells. Primary CAFs were added at cancer:CAF 6:1 ratio. The microfluidic devices were incubated for 30 min at 37° C. in a humidified chamber to allow the polymerization of the collagen solution; afterwards, 120 µl of culture medium were added in each lateral chamber. MDA-MB-231 cells in chip were cultured in the same medium used for dish 2D culture, whereas the IGR-Pub/P62 cells co-cultures were cultured in T-cell medium, supplemented with rIL-2 (10 U/ml, GIBCO, #PHC0027). After the addition of the medium, the microfluidic devices were kept for 1 hour in the incubator before transfer to the incubating chamber of the microscope for imaging.
Cell staining Cancer cells were labeled with CellTrace™ Yellow (Thermofisher, #C34567) before seeding in the gel, for the detection in the so-called “red channel” of fluorescence. […] CellTrace™ exists in 4 colours so up to 5 different cell populations could potentially be analysed separately (4 colours + unstained) by staining the cells prior to mixing. […]

For COc1cccc2c1C(=O)c1c(O)c3c(c(O)c1C2=O)C[C@@](O)(C(=O)CO)C[C@@H]3O[C@H]1C[C@H](N)[C@H](O)[C@H](C)O1 [doxorubicin], the “doxorubicin-dependent apoptotic increase in presence of CAFs” value [1] was “completely impaired”, the “latency in the response to doxorubicin” value ([2]; 3D on-chip (FIG. 4C, right)) was 20 h and the “death rate during the first 20 hrs of treatment” value ([2]; TLAG = 10 hrs, 3D on-chip) was “remained at basal level”. For the same compound, the “death rate (apoptosis rate) in 10 hrs-time-intervals” value ([2]; after 20 hrs of exposure, TLAG = 10 hrs, 3D on-chip, 72 h) was “more than 10%” and the “Potential of death induction (Pdeath) increase” value ([2]; during the first 2 days, remains high during the 3rd day, T̃ = 16 hr) was 3-4 fold.
